These results are taken from PubChem BioAssay (NCI).

Holding throughout (assay): growth of human tumour cells (NCI), 48 h
The subject of assay [1] is U251 CNS.
The test system of assay [2] is KM12 colon.
Assay [3] deals with HCT-15 colon.
Assay [4] relates to SK-MEL-2 melanoma.
In assay [5] the test system is M14 melanoma.
The test system of assay [6] is A498 renal.
For assay [7], the system named is DU-145 prostate.
For assay [8], the system named is SNB-75 CNS.
Assay [9] has as its system A549 NSCLC.
Assay [10] concerns HCC-2998 colon.

Structures are written as SMILES. Values joined by “and” are separate entries in the source; they are usually repeats but may differ in a detail not shown here. Identical values can stand only once.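 Cells were grown in 96-well plates and exposed to each compound for 48 hours at five concentrations; endpoints were interpolated linearly between bracketing concentrations, or set to the highest concentration if not reached. The concentration for 50% growth inhibition is given as GI50. TGI marks complete inhibition of growth.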

`CN1CCN(Cc2cc(NC(=O)c3cccc(C#Cc4cccc5[nH]nc(N)c45)c3)cc(C(F)(F)F)c2)CC1`: the GI50 in assay [1] was 1.81 µM; in assay [2], 1.32 µM; in assay [3], 1.81 µM; in assay [4], 1.72 µM; in assay [5], 1.35 µM; in assay [6], 1.01 µM. Also, the GI50 in assay [7] was 1.7 µM; in [8], 1.5 µM; in assay [9], 1.83 µM; in assay [10], 1.99 µM. In addition, the TGI is 3.22 µM in assay [1]; 2.67 µM in assay [2]; 3.37 µM in assay [3]; 3.4 µM in assay [4]; 2.9 µM in assay [5]; 2.22 µM in assay [6]. Also, the TGI in assay [7] worked out at 3.07 µM; in assay [8] it was 2.92 µM; in assay [9], 3.28 µM; in [10], 3.66 µM.
For `O=[N+]([O-])c1ccc(Sc2ccncn2)c([N+](=O)[O-])c1`, the GI50 is 5.47 µM in assay [1]; 2.75 µM in assay [2]; 3.07 µM in [3]; 2.96 µM in [4]; 1.64 µM in assay [5]; 8.71 µM in assay [6]. For the same molecule, the GI50 in [7] was 2.14 µM; in [8] it was 2.82 µM; in [9], 4.3 µM; in [10], 5.17 µM. For the same molecule, the TGI in assay [1] was determined as 17.8 µM; in assay [2], 9 µM; in assay [3] it was 9.93 µM; in [4] it was 8.96 µM; in assay [5], 3.3 µM; in assay [6], 22.7 µM. Further, the TGI stood at 9.17 µM in [7], 13.1 µM in assay [8], 16.4 µM in assay [9] and 16.3 µM in [10].
In the case of `Cc1cc(=O)oc2cc(OC/C=C3\CCC(=O)O3)ccc12`, the GI50 was 14.5 µM in assay [1]; 18 µM in assay [2]; 10.6 µM in assay [3]; 17.9 µM in [4]; 9.51 µM in assay [5]; 28.7 µM in assay [6]. In addition, the GI50 in [7] was 5.31 µM; in assay [8] it was 16.8 µM; in assay [9], 31.2 µM; in assay [10], 16 µM. For the same molecule, the TGI in assay [1] worked out at 30.9 µM; in [2], 47.9 µM; in assay [3], 23.9 µM; in assay [4], 60.2 µM; in [5], 25 µM; in [6], 79.4 µM. Moreover, the TGI was 22.9 µM in assay [7], 40.1 µM in assay [8], more than 91.4 µM in assay [9] and 31.4 µM in assay [10].
Turning to `COc1cccc2c1C(=O)c1c(O)c3c(c(O)c1C2=O)CC(O)(C(=O)CO)CC3OC1CC(N)C(O)C(C)O1` (centres undefined), the GI50 in [1] was 2.22 µg/mL and 6.15 µg/mL; in [2], 16.9 µg/mL and 54.4 µg/mL; in assay [3] it was 75 µg/mL and > 150 µg/mL; in assay [4] it was 24.1 µg/mL and 44.3 µg/mL; in assay [5], 9.35 µg/mL and 48.5 µg/mL; in [6], 19 µg/mL and 33.8 µg/mL. In addition, the GI50 in [7] was 15.9 µg/mL and 71 µg/mL; in assay [8] it was 9.12 µg/mL and 51.1 µg/mL; in assay [9], 4.17 µg/mL and 22.6 µg/mL; in [10], 37.2 µg/mL and 26 µg/mL. Moreover, the TGI was 75 µg/mL and 44 µg/mL in assay [1]; 75 µg/mL and > 150 µg/mL in assay [2]; 75 µg/mL and > 150 µg/mL in [3]; 75 µg/mL and 138 µg/mL in [4]; 75 µg/mL and > 150 µg/mL in assay [5]; 75 µg/mL and > 150 µg/mL in [6]. Further, the TGI in [7] was 75 µg/mL and > 150 µg/mL; in [8], 55 µg/mL and > 150 µg/mL; in [9] it was 75 µg/mL and > 150 µg/mL; in assay [10] it was 75 µg/mL and 122 µg/mL.
Take `CC1(C)N=C(N)N=C(N)N1c1cccc(Br)c1`: the GI50 in [1] is 0.321 µM; in [2], 0.769 µM; in [3], 1.42 µM; in assay [4], more than 100 µM; in [5], 0.558 µM; in assay [6] it was 15.9 µM. The GI50 in assay [7] is 0.895 µM; in assay [8] it was more than 59 µM; in assay [9], 0.469 µM; in assay [10], 0.777 µM. The TGI in assay [1], in assay [2], in assay [3], in [4], in [5] and in assay [6] was more than 100 µM each time. Moreover, the TGI in assay [7] was more than 100 µM; in assay [8], more than 100 µM; in [9] it was more than 100 µM; in assay [10] it was more than 45.5 µM.
Consider `Nc1ncnc2c1ccn2[C@@H]1O[C@H]([C@H](O)c2ccc(Cl)c(F)c2)[C@@H](O)[C@H]1O`, for which the GI50 in assay [1] was more than 100 µM; in assay [2], more than 100 µM; in assay [3] it was more than 100 µM; in [4] it was more than 100 µM; in assay [5] it was more than 100 µM; in [6], 52.4 µM. Moreover, the GI50 in [7], in [8], in [9] and in assay [10] was more than 100 µM each time. Also, the TGI in assay [1], in assay [2], in assay [3], in [4], in assay [5] and in assay [6] was more than 100 µM each time. Besides, the TGI in assay [7], in [8], in assay [9] and in assay [10] was more than 100 µM in each case.
With `COCc1c(-c2ccc(NC(=O)Nc3cc(C(F)(F)F)ccc3F)c(F)c2)c2c(N)ncnn2c1CN1CCOCC1`, the GI50 was 2.56 µM in assay [1]; 0.041 µM in [2]; 1.74 µM in [3]; 1.07 µM in [4]; 1.5 µM in assay [5]; 0.0166 µM in assay [6]. Further, the GI50 was 2.09 µM in assay [7], 0.492 µM in assay [8], 2.53 µM in assay [9] and 2.84 µM in assay [10]. The TGI in [1] was more than 10 µM; in assay [2] it was 5.43 µM; in assay [3], more than 10 µM; in assay [4] it was 2.58 µM; in [5] it was more than 10 µM; in [6], 0.248 µM. Further, the TGI in assay [7] is more than 10 µM; in [8], 3.25 µM; in [9], more than 10 µM; in [10], 7.33 µM.
Regarding `COc1cccc(Nc2nccc(-c3cnn4ncccc34)n2)c1`, the GI50 was 0.0553 µM in assay [1]; 0.0629 µM in assay [2]; 0.0697 µM in assay [3]; 0.0572 µM in assay [4]; 0.0777 µM in [5]; 0.0483 µM in [6]. Also, the GI50 in [7] was 0.0884 µM; in assay [8], 0.0463 µM; in assay [9] it was 0.0698 µM; in assay [10], 0.0671 µM. The TGI is 9.24 µM in assay [1]; 0.367 µM in [2]; more than 25 µM in assay [3]; 0.138 µM in assay [4]; 0.34 µM in assay [5]; 0.126 µM in assay [6]. In addition, the TGI in assay [7] is more than 25 µM; in [8], 0.122 µM; in [10], 0.238 µM.
In the case of `Cc1cc(Cl)cc(Cc2cc(Cl)cc(C)c2O)c1O`, the GI50 in assay [1] is 2.93 µM; in [2] it was 2.85 µM; in assay [3] it was 3.06 µM; in assay [4] it was 2.6 µM; in assay [5], 2.98 µM; in assay [6], 3.05 µM. For the same molecule, the GI50 in assay [7] was 3.47 µM; in assay [8], 1.95 µM; in assay [9], 2.91 µM; in [10], 2.68 µM. The TGI was determined as 11.3 µM in assay [1]; 10.2 µM in assay [2]; 11.3 µM in assay [3]; 5.73 µM in assay [4]; 11.3 µM in assay [5]; 14.1 µM in assay [6]. Besides, the TGI is 17 µM in [7], 7.19 µM in assay [8], 11.1 µM in [9] and 7.95 µM in assay [10].
Turning to `COC(=O)[C@]12CC[C@@H](C)[C@H](C)[C@@H]1C1=CC[C@@H]3[C@@]4(C)C(C=O)=C[C@@](C)(COC(=O)/C=C/c5ccccc5)[C@@H]4[C@H](O)C[C@@]3(C)[C@]1(C)CC2`, the GI50 in assay [1] is 3.75 µM; in [2], 3.58 µM; in [3] it was 2.2 µM; in assay [4] it was 3.21 µM; in assay [5], 3.33 µM; in assay [6], 4.8 µM. For the same molecule, the GI50 is 4.96 µM in assay [7], 3.37 µM in assay [8], 3.73 µM in assay [9] and 3.04 µM in [10]. Moreover, the TGI in assay [1] came out at 16.2 µM; in assay [2] it was 19.4 µM; in [3], 5.36 µM; in assay [4], 12.8 µM; in [5], 17.3 µM; in assay [6] it was 23.7 µM. For the same molecule, the TGI came out at 25.9 µM in assay [7], 31.5 µM in [8], 22 µM in assay [9] and 7.75 µM in assay [10].
